Assays:
β-tubulin isotypes = details: cited from earlier work
[1] = tested on: β-tubulin in white blood cells; test: Western blot of white blood cells from a human patient after compound 1 infusion; type: in vivo
Procedure: (§1) White blood cells (“WBC”) were isolated from blood samples (5 ml) taken immediately after a 3 h infusion of compound 1 sodium salt from rats or a human patient treated at 20 mg/kg and 220 mg/m2, respectively, as follows. The samples were mixed with 5 ml of PBS and layered on a Ficoll cushion (10 ml, “Lymphoprep” (density is ˜1.077 and osmolality 280 mOsm, Gibco/BRL). After centrifugation (1000 rpm, 30 min (Sorvall RC3C centrifuge)) at room temperature WBC were isolated from the cushion and the sample was diluted 1:5 with PBS. After centrifugation (2000 rpm for 10 min) the liquid was discarded and the cell pellet was resuspended in 1 ml of PBS. The solution was transferred to an Eppendorf tube and the cells were collected by centrifugation (3000 rpm, 5 min). After the supernatant was discarded the cell pellet was stored at −80° C. or processed as follows. Rat WBC-pellet was resuspended in 15 μl of IEF-buffer and mixed with 15 μl of 2× SDS sample buffer. The human sample was mixed immediately with an equal volume (10 μl) of SDS sample buffer. Protein samples ([…], human; 2 μl, rat) were analyzed by SDS-PAGE and subjected to western blot analyzes as outlined above.
As a standard 10 μg of purified brain tubulin was mixed with […] of BRB80 buffer and incubated with 10 μl of ^3H-compound 1 (10 μCi) in a 500 μl reaction at […] for 2 h. […]

[2] = tested on: β-tubulin in white blood cells; test: Western blot of white blood cells from rats after compound 1 infusion; type: in vivo, rat; details: 3 h infusion of compound 1 sodium salt, 20 mg/kg
Procedure: as §1

cellular tubulin = details: cited from earlier work

Question: Which results are given for `COc1ccc(NS(=O)(=O)c2c(F)c(F)c(F)c(F)c2F)cc1F` [compound 1, 2-fluoro-1-methoxy-4-pentafluorophenylsulfonamidobenzene]?
Answer: modification of other cellular proteins (β-tubulin isotypes): no other cellular proteins are modified; covalent modification of β-tubulin isotypes (β-tubulin isotypes; five known β-tubulin isotypes, β1, β2, β4 have Cys239, β3 and β5 have serine): binding is restricted to those β-tubulin isotypes that have a cysteine residue at amino acid position 239 in β-tubulin; amount of loaded tubulin modified by compound 1 ([1]; human WBC sample, compared with 3H-compound 1-β-tubulin standard curve): ~7.5 fmol; β-tubulin modification in white blood cells (western blot with 2C1H7) ([1]; human patient, 3 h infusion of compound 1 sodium salt, 220 mg/m2): a protein consistent of the size of β-tubulin was visible; β-tubulin modification in white blood cells (western blot with 2C1H7) [2]: a protein consistent of the size of β-tubulin was visible; binding to cellular tubulin (cellular tubulin): time- and concentration-dependent
